In ChEMBL document CHEMBL1201862, “PubChem BioAssay data set” (2004):
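Assay format: 96-well plates, 48-hour exposure. GI50 is the concentration that inhibits growth by half.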 The source made the active and inactive calls. Rule as the data show it: active = GI50 up to about 1.1 µM and inactive = higher.

Columns and labels:
Assay in all cases: NCI-60 cell line screen, 48 h
Hs-578T = test system: Hs-578T
MDA-MB-435 = test system: MDA-MB-435
K562 = test system: K562
BT-549 = test system: BT-549
SNB-75 = test system: SNB-75
IGROV-1 = test system: IGROV-1
OVCAR-4 = test system: OVCAR-4
HL-60 = test system: HL-60
SK-MEL-2 = test system: SK-MEL-2
MOLT-4 = test system: MOLT-4
UO-31 = test system: UO-31
NCI-H23 = test system: NCI-H23
KM12 = test system: KM12
NCI/ADR-RES = test system: NCI/ADR-RES
RPMI-8226 = test system: RPMI-8226
SF-268 = test system: SF-268
PC-3 = test system: PC-3
NCI-H460 = test system: NCI-H460
A549 = test system: A549
Malme-3M = test system: Malme-3M
SF-295 = test system: SF-295
T47D = test system: T47D
SW-620 = test system: SW-620
CAKI-1 = test system: CAKI-1
U-251 = test system: U-251
DU-145 = test system: DU-145
HCT-15 = test system: HCT-15
HCT-116 = test system: HCT-116
A498 = test system: A498
TK-10 = test system: TK-10
HCC 2998 = test system: HCC 2998
SNB-19 = test system: SNB-19
SF-539 = test system: SF-539
EKVX = test system: EKVX
786-0 = test system: 786-0
SK-MEL-5 = test system: SK-MEL-5
ACHN = test system: ACHN
OVCAR-3 = test system: OVCAR-3
MDA-MB-231 = test system: MDA-MB-231
SR = test system: SR
RXF 393 = test system: RXF 393
M14 = test system: M14
COLO 205 = test system: COLO 205
UACC-62 = test system: UACC-62
OVCAR-5 = test system: OVCAR-5
MCF7 = test system: MCF7
HOP-62 = test system: HOP-62
HOP-92 = test system: HOP-92
SK-OV-3 = test system: SK-OV-3
LOX IMVI = test system: LOX IMVI
SN12C = test system: SN12C
UACC-257 = test system: UACC-257
NCI-H522 = test system: NCI-H522
SK-MEL-28 = test system: SK-MEL-28
CCRF-CEM = test system: CCRF-CEM
OVCAR-8 = test system: OVCAR-8
NCI-H226 = test system: NCI-H226
HT-29 = test system: HT-29

SMILES: CN(C)CCSC1=Nc2ccc(Cl)cc2C(c2ccccc2Cl)=NC1
- GI50 (Hs-578T): 21.4 µM (inactive)
- GI50 (MDA-MB-435): 17.9 µM (inactive)
- GI50 (K562): 34.6 µM (inactive)
- GI50 (BT-549): 42.3 µM (inactive)
- GI50 (SNB-75): 30.1 µM (inactive)
- GI50 (IGROV-1): 92.5 µM (inactive)
- GI50 (OVCAR-4): > 100 µM (inactive)
- GI50 (HL-60): 30.3 µM (inactive)
- GI50 (SK-MEL-2): > 100 µM (inactive)
- GI50 (MOLT-4): 31.4 µM (inactive)

SMILES: COc1ccc2c(c1)CC[C@@H]1[C@@H]2CC[C@]2(C)C(=O)/C(=C/c3cc(OC)c(OC)c(OC)c3)C[C@@H]12
- GI50 (UO-31): 47.2 µM (inactive)
- GI50 (NCI-H23): 25 µM (inactive)
- GI50 (KM12): 29 µM (inactive)
- GI50 (NCI/ADR-RES): 15.4 µM (inactive)
- GI50 (RPMI-8226): > 100 µM (inactive)
- GI50 (SF-268): 0.0149 µM (active)
- GI50 (PC-3): 14 µM (inactive)
- GI50 (NCI-H460): 31.8 µM (inactive)
- GI50 (MDA-MB-435): > 100 µM (inactive)
- GI50 (A549): 40.9 µM (inactive)
- GI50 (Malme-3M): 17.8 µM (inactive)
- GI50 (SF-295): 29.4 µM (inactive)
- GI50 (T47D): 67 µM (inactive)
- GI50 (SW-620): > 100 µM (inactive)
- GI50 (CAKI-1): 27.7 µM (inactive)
- GI50 (BT-549): 26.3 µM (inactive)
- GI50 (U-251): 34.8 µM (inactive)
- GI50 (DU-145): 42.4 µM (inactive)
- GI50 (HCT-15): 70 µM
- GI50 (HCT-116): 31.6 µM (inactive)
- GI50 (A498): 59 µM (inactive)
- GI50 (TK-10): 19.4 µM (inactive)
- GI50 (SNB-75): 19.4 µM (inactive)
- GI50 (HCC 2998): 42.8 µM (inactive)
- GI50 (SNB-19): 52.6 µM (inactive)
- GI50 (SF-539): 28.2 µM (inactive)
- GI50 (EKVX): 61.2 µM (inactive)
- GI50 (786-0): 19.2 µM (inactive)
- GI50 (OVCAR-4): 40.4 µM (inactive)
- GI50 (SK-MEL-5): 71.3 µM (inactive)
- GI50 (ACHN): 21.7 µM (inactive)
- GI50 (OVCAR-3): 19.5 µM (inactive)
- GI50 (HL-60): > 100 µM (inactive)
- GI50 (MDA-MB-231): 18.1 µM (inactive)
- GI50 (SR): 15.2 µM (inactive)
- GI50 (RXF 393): 29.6 µM (inactive)
- GI50 (M14): 23.2 µM (inactive)
- GI50 (COLO 205): 87.1 µM (inactive)
- GI50 (UACC-62): 30.2 µM (inactive)
- GI50 (OVCAR-5): 24.4 µM (inactive)
- GI50 (MCF7): 42.5 µM (inactive)
- GI50 (SK-MEL-2): 19 µM (inactive)
- GI50 (HOP-62): 17 µM (inactive)
- GI50 (HOP-92): 22.2 µM (inactive)
- GI50 (SK-OV-3): 44 µM (inactive)
- GI50 (MOLT-4): 95.9 µM (inactive)

SMILES: Cc1cn(CC2=NC3CCCCC3N2)c(=O)[nH]c1=O (stereo not drawn)
- GI50 (UO-31): > 100 µM (inactive)
- GI50 (NCI-H23): > 100 µM (inactive)
- GI50 (NCI/ADR-RES): > 100 µM (inactive)
- GI50 (Hs-578T): > 100 µM (inactive)
- GI50 (RPMI-8226): > 100 µM (inactive)
- GI50 (SF-268): > 100 µM (inactive)
- GI50 (PC-3): > 100 µM (inactive)
- GI50 (NCI-H460): > 100 µM (inactive)
- GI50 (A549): > 100 µM (inactive)
- GI50 (Malme-3M): > 100 µM (inactive)
- GI50 (K562): > 100 µM (inactive)
- GI50 (SF-295): > 100 µM (inactive)
- GI50 (T47D): > 100 µM (inactive)
- GI50 (SW-620): > 100 µM (inactive)
- GI50 (BT-549): > 100 µM (inactive)
- GI50 (U-251): > 100 µM (inactive)
- GI50 (DU-145): > 100 µM (inactive)
- GI50 (HCT-15): > 100 µM
- GI50 (HCT-116): > 100 µM (inactive)
- GI50 (A498): > 100 µM (inactive)
- GI50 (TK-10): > 100 µM (inactive)
- GI50 (SNB-75): > 100 µM (inactive)
- GI50 (HCC 2998): > 100 µM (inactive)
- GI50 (SNB-19): > 100 µM (inactive)
- GI50 (LOX IMVI): > 100 µM (inactive)
- GI50 (EKVX): > 100 µM (inactive)
- GI50 (IGROV-1): > 100 µM (inactive)
- GI50 (786-0): > 100 µM (inactive)
- GI50 (SN12C): > 100 µM (inactive)
- GI50 (SK-MEL-5): > 100 µM (inactive)
- GI50 (ACHN): > 100 µM (inactive)
- GI50 (UACC-257): > 100 µM (inactive)
- GI50 (NCI-H522): > 100 µM (inactive)
- GI50 (SK-MEL-28): > 100 µM (inactive)
- GI50 (HL-60): > 100 µM (inactive)
- GI50 (MDA-MB-231): > 100 µM (inactive)
- GI50 (SR): > 100 µM (inactive)
- GI50 (RXF 393): > 100 µM (inactive)
- GI50 (M14): > 100 µM (inactive)
- GI50 (COLO 205): > 100 µM (inactive)
- GI50 (CCRF-CEM): > 100 µM (inactive)
- GI50 (UACC-62): > 100 µM (inactive)
- GI50 (OVCAR-5): > 100 µM (inactive)
- GI50 (OVCAR-8): > 100 µM (inactive)
- GI50 (MCF7): > 100 µM (inactive)
- GI50 (SK-MEL-2): > 100 µM (inactive)
- GI50 (NCI-H226): > 100 µM (inactive)
- GI50 (HOP-62): > 100 µM (inactive)
- GI50 (HT-29): > 100 µM (inactive)
- GI50 (HOP-92): > 100 µM (inactive)
- GI50 (SK-OV-3): > 100 µM (inactive)
- GI50 (MOLT-4): > 100 µM (inactive)
